Results: patent US20080275018A1, “ANTIBACTERIAL AMIDE-MACROCYCLES V” (AiCuris GmbH & Co. KG, priority 2005, published 2008)

Biological target: S. aureus 133 Translation
Assay: S. aureus in vitro transcription-translation assay (firefly luciferase, S30 extract)
Assay type: biochemical
Conditions: 50% inhibition of the translation of firefly luciferase
Text: For the construction of a reporter plasmid which can be used in an in vitro transcription-translation assay from S. aureus the plasmid pBESTluc (Promega Corporation, USA) is used. The E. coli tac promoter present in this plasmid in front of the firefly luciferase is replaced by the capA1 promoter with corresponding Shine-Dalgarno sequence from S. aureus. The primers CAPFor 5′-[…]-[…] GCCA-3′ and CAPRev 5′-[…]-3′ are used for this. The primer CAPFor contains the capA1 promoter, the ribosome binding site and the 5′ region of the luciferase gene. After PCR using pBESTluc as template it is possible to isolate a PCR product which contains the firefly luciferase gene with the fused capA1 promoter. This is, after restriction with ClaI and HindIII, ligated into the vector pBESTluc which has likewise been digested with ClaI and HindIII. The resulting plasmid pla can be replicated in E. coli and be used as template in the S. aureus in vitro transcription-translation test.
Six litres of BHI medium are inoculated with a 250 ml overnight culture of an S. aureus Strain and allowed to grow at 37° C. until the OD600 nm is 2-4. The cells are harvested by centrifugation and washed in 500 ml of cold buffer A (10 mM Tris acetate, pH 8.0, 14 mM magnesium acetate, 1 mM DTT, 1 M KCl). After renewed centrifugation, the cells are washed in 250 ml of cold buffer A with 50 mM KCl, and the resulting pellets are frozen at −20° C. for 60 min. The pellets are thawed on ice in 30 to 60 min and taken up to a total volume of 99 ml in buffer B (10 mM Tris acetate, pH 8.0, 20 mM magnesium acetate, 1 mM DTT, 50 mM KCl). 1.5 ml portions of lysostaphin (0.8 mg/ml) in buffer B are provided in 3 precooled centrifuge cups and each mixed with 33 ml of the cell suspension. The samples are incubated at 37° C., shaking occasionally, for 45 to 60 min, before 150 μl of a 0.5 M DTT solution are added. The lysed cells are centrifuged at 30 000×g and 4° C. for 30 min. The cell pellet is taken up in buffer B and then centrifuged again under the same conditions, and the collected supernatants are combined. The supernatants are centrifuged again under the same conditions, and 0.25 volumes of buffer C (670 mM Tris acetate, pH 8.0, 20 mM magnesium acetate, 7 mM Na3 phosphoenolpyruvate, 7 mM DTT, 5.5 mM ATP, 70 μM amino acids (complete from Promega), 75 μg of pyruvate kinase (Sigma, Germany)/ml are added to the upper ⅔ of the supernatant. The samples are incubated at 37° C. for 30 min. The supernatants are dialysed against 2 l of dialysis buffer (10 mM Tris acetate, pH 8.0, 14 mM magnesium acetate, 1 mM DTT, 60 mM potassium acetate) in a dialysis tube with a 3500 Da cut-off with one buffer change at 4° C. overnight. The dialysate is concentrated to a protein concentration of about 10 mg/ml by
covering the dialysis tube with cold PEG 8000 powder (Sigma, Germany) at 4° C. The S30 extracts can be stored in aliquots at −70° C.
The inhibition of protein biosynthesis of the compounds can be shown in an in vitro transcription-translation assay. The assay is based on the cell-free transcription and translation of firefly luciferase using the reporter plasmid pla as template and cell-free S30 extracts obtained from S. aureus. The activity of the resulting luciferase can be detected by luminescence measurement.
The amount of S30 extract or plasmid pla to be employed must be tested anew for each preparation in order to ensure an optimal concentration in the test. […] of the substance to be tested, dissolved in 5% DMSO, are introduced into an MTP. Then […] of a suitably concentrated plasmid solution pla are added. […]

Compound: NC[C@H](O)C[C@@H]1NC(=O)[C@@H](N)Cc2cc(ccc2O)-c2ccc(O)c(c2)C[C@@H](C(=O)O)NC1=O [Biphenomycin B, biphenomycin B, reference compound]
- IC50: 1.5 µM
